From article PMC6001238, “Iterative Chemical Engineering of Vancomycin Leads to Novel Vancomycin Analogs With a High in Vitro Therapeutic Index” (Frontiers in Microbiology, 2018)
≈ marks a conversion by molar mass, not a printed value.

Experiments:
[1] = system: human T-lymphocyte (CEM) cells; assay: Cytostatic activity, CEM cell proliferation; format: cell-based; details: mean ± SD of three experiments; highest concentration tested 250 µM; 3 days; read-out: Toxicity (IC50) CEM
Outline: (§1)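 Test compounds, serially diluted, received an equal volume of cell suspension at 300,000–500,000 cells/mL. After 37°C incubation (2 days for L1210, 3 for CEM, 4 for HeLa), cells were enumerated by Coulter counting and 50%-inhibitory concentrations calculated per cell type.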

[2] = system: E. faecalis VRE 29; assay: MIC, broth microdilution, vancomycin-resistant E. faecalis VRE 29 (VanA); format: cell-based, Enterococcus faecalis; details: for MIC: Enterococcus faecalis VRE 29 (vancomycin-resistant), read-out: MIC; for MIC-fold improvement vs. vancomycin: VRE 29, ratio of MIC of vancomycin and MIC of analogue
Outline: (§2)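 Controls (ultrapure water; broth not inoculated) were included throughout CLSI-compliant broth microdilution. One condition supplemented analogue or comparator with 10 μM vancomycin, final level.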

[3] = system: E. faecalis VRE 53; assay: MIC, broth microdilution, vancomycin-resistant E. faecalis VRE 53 (VanA); format: cell-based, Enterococcus faecalis; details: for MIC: Enterococcus faecalis VRE 53 (vancomycin-resistant), read-out: MIC; for MIC-fold improvement vs. vancomycin: VRE 53, ratio of MIC of vancomycin and MIC of analogue
Outline: as §2

[4] = system: E. faecalis VRE 37; assay: MIC, broth microdilution, vancomycin-resistant E. faecalis VRE 37 (VanA); format: cell-based, Enterococcus faecalis; details: for MIC: Enterococcus faecalis VRE 37 (vancomycin-resistant), read-out: MIC; for MIC-fold improvement vs. vancomycin: VRE 37, ratio of MIC of vancomycin and MIC of analogue
Outline: as §2

[5] = system: human cervix carcinoma (HeLa) cells; assay: Cytostatic activity, HeLa cell proliferation; format: cell-based; details: mean ± SD of three experiments; highest concentration tested 250 µM; 4 days; read-out: Toxicity (IC50) HeLa
Outline: as §1

[6] = system: S. aureus VRSA; assay: MIC, broth microdilution, vancomycin-resistant S. aureus (VRSA); format: cell-based, Staphylococcus aureus; details: for MIC: Staphylococcus aureus VRSA, read-out: MIC; for MIC-fold improvement vs. vancomycin: VRSA, ratio of MIC of vancomycin and MIC of analogue
Outline: as §2

[7] = system: S. aureus VSSA (ATCC 6538); assay: MIC, broth microdilution, vancomycin-sensitive S. aureus (VSSA/MSSA, ATCC 6538); format: cell-based, Staphylococcus aureus; details: for MIC: Staphylococcus aureus VSSA, read-out: MIC; for MIC-fold improvement vs. vancomycin: VSSA, ratio of MIC of vancomycin and MIC of analogue
Outline: as §2

[8] = system: S. aureus VISA/HIP5827; assay: MIC, broth microdilution, vancomycin-intermediate S. aureus VISA HIP5827; format: cell-based, Staphylococcus aureus; details: for MIC: Staphylococcus aureus VISA/HIP5827, read-out: MIC; for MIC-fold improvement vs. vancomycin: VISA/HIP5827, ratio of MIC of vancomycin and MIC of analogue
Outline: as §2

[9] = system: Clostridium difficile AIU ribotype 027; assay: MIC, plate drop assay, C. difficile AIU ribotype 027; format: cell-based; details: C. difficile AIU ribotype 027
Procedure: (§3) Bacterial lawns of both C. difficile strains were prepared by adding 0.5 mL overnight culture to 8 mL sloppy BHI agar (0.4% agar) supplemented with 1.5 g/L CaCl2⋅2H2O and 81.2 g/L MgCl2⋅6H2O, and pouring the mixture into Petri plates. A twofold dilution series of the selected vancomycin analogs, vancomycin ([…]) and daptomycin (25 μM) was spotted (10 μL) on the bacterial lawn. Spots were air-dried and the plates were incubated overnight at 37°C in an anaerobic cabinet. Ultrapure water was included as negative control. The assay was performed in triplicate. Inhibition was observed by cleared spots.

[10] = system: Clostridium difficile ATJ ribotype 014/20; assay: MIC, plate drop assay, C. difficile ATJ ribotype 014/20; format: cell-based; details: C. difficile ATJ ribotype 014/20
Procedure: as §3

[11] = system: E. faecalis VRE 6; assay: MIC, broth microdilution, vancomycin-resistant E. faecalis VRE 6 (VanA); format: cell-based, Enterococcus faecalis; details: for MIC: Enterococcus faecalis VRE 6 (vancomycin-resistant), read-out: MIC; for MIC-fold improvement vs. vancomycin: VRE 6, ratio of MIC of vancomycin and MIC of analogue
Outline: as §2

[12] = system: E. faecalis VSE 1; assay: MIC, broth microdilution, vancomycin-sensitive E. faecalis (VSE 1); format: cell-based, Enterococcus faecalis; details: for MIC: Enterococcus faecalis VSE 1 (vancomycin-sensitive), read-out: MIC; for MIC-fold improvement vs. vancomycin: VSE 1, ratio of MIC of vancomycin and MIC of analogue
Outline: as §2

[13] = system: Murine leukemia (L1210) cells; assay: Cytostatic activity, L1210 cell proliferation; format: cell-based; details: mean ± SD of three experiments; highest concentration tested 250 µM; 2 days; read-out: Toxicity (IC50) L1210
Outline: as §1

[14] = system: L1210, CEM and HeLa cell lines; assay: Cytostatic activity, average or summary over L1210, CEM and HeLa; format: cell-based; details: average of L1210, CEM and HeLa; read-out: Toxicity (IC50) Average
Outline: as §1

[15] = system: MRSA KS1; assay: MIC, broth microdilution, MRSA KS1; format: cell-based, Staphylococcus aureus
Outline: as §2

[16] = system: MRSA KS6; assay: MIC, broth microdilution, MRSA KS6; format: cell-based, Staphylococcus aureus
Outline: as §2

[17] = system: MRSA KS2; assay: MIC, broth microdilution, MRSA KS2; format: cell-based, Staphylococcus aureus
Outline: as §2

[18] = system: MRSA KS89; assay: MIC, broth microdilution, MRSA KS89; format: cell-based, Staphylococcus aureus
Outline: as §2

Row | SMILES | IC50 [1] [µM] | MIC [2] [µM] | MIC-fold improvement vs. vancomycin [2] | MIC [3] [µM] | MIC-fold improvement vs. vancomycin [3] | MIC [4] [µM] | MIC-fold improvement vs. vancomycin [4] | IC50 [5] [µM] | MIC [6] [µM] | MIC-fold improvement vs. vancomycin [6] | MIC [7] [µM] | MIC-fold improvement vs. vancomycin [7] | MIC [8] [µM] | MIC-fold improvement vs. vancomycin [8] | MIC [11] [µM] | MIC-fold improvement vs. vancomycin [11] | MIC [12] [µM] | MIC-fold improvement vs. vancomycin [12] | IC50 [13] [µM] | IC50 [14] [µM] | further results
1 | CN[C@H](CC(C)C)C(=O)N[C@H]1C(=O)N[C@@H](CC(N)=O)C(=O)N[C@H]2C(=O)N[C@H]3C(=O)N[C@H](C(=O)N[C@H](C(=O)NCC(=O)Nc4ccc5cc6ccccc6cc5c4)c4cc(O)cc(O)c4-c4cc3ccc4O)[C@H](O)c3ccc(c(Cl)c3)Oc3cc2cc(c3O[C@@H]2O[C@H](CO)[C@@H](O)[C@H](O)[C@H]2O[C@H]2C[C@](C)(N)[C@H](O)[C@H](C)O2)Oc2ccc(cc2Cl)[C@H]1O [Vanc-59] | 23 ± 6 | 3.13 (≈ 5.26 µg/mL) | 128 | 12.5 (≈ 21 µg/mL) | 32 | 1.56 (≈ 2.62 µg/mL) | 256 | 88 ± 37 | 0.20 (≈ 0.336 µg/mL) | 512 | 0.39 (≈ 0.656 µg/mL) | 2 | 0.39 (≈ 0.656 µg/mL) | 16 | 1.56 (≈ 2.62 µg/mL) | 128 | 0.20 (≈ 0.336 µg/mL) | 8 | 177 ± 90 | 96 | MIC-fold improvement vs. vancomycin [9]: 29; MIC-fold improvement vs. vancomycin [10]: 22
2 | CNC(CC(C)C)C(=O)NC1C(=O)NC(CC(N)=O)C(=O)NC2C(=O)NC3C(=O)NC(C(=O)NC(C(=O)NCC(=O)Nc4ccc5c(c4)C(=O)c4ccccc4-5)c4cc(O)cc(O)c4-c4cc3ccc4O)C(O)c3ccc(c(Cl)c3)Oc3cc2cc(c3OC2OC(CO)C(O)C(O)C2OC2CC(C)(N)C(O)C(C)O2)Oc2ccc(cc2Cl)C1O (centres unmarked) [Vanc-89] | 38 ± 10 | 6.25 (≈ 10.5 µg/mL) | 64 | 12.5 (≈ 21 µg/mL) | 32 | 6.25 (≈ 10.5 µg/mL) | 64 | 154 ± 30 | 0.78 (≈ 1.31 µg/mL) | 128 | 0.10 (≈ 0.168 µg/mL) | 8 | 0.78 (≈ 1.31 µg/mL) | 8 | 3.13 (≈ 5.27 µg/mL) | 64 | ≤0.05 | ≥32 | 71 ± 56 | 88 | MIC-fold improvement vs. vancomycin ([15]; MRSA KS1, ratio of MIC of vancomycin and MIC of analogue): 8; MIC ([15]; Staphylococcus aureus MRSA KS1, read-out: MIC): 0.10 µM (≈ 0.168 µg/mL); MIC-fold improvement vs. vancomycin ([16]; MRSA KS6, ratio of MIC of vancomycin and MIC of analogue): 4; MIC ([16]; Staphylococcus aureus MRSA KS6, read-out: MIC): 0.20 µM (≈ 0.337 µg/mL); MIC-fold improvement vs. vancomycin ([17]; MRSA KS2, ratio of MIC of vancomycin and MIC of analogue): 8; MIC ([17]; Staphylococcus aureus MRSA KS2, read-out: MIC): 0.10 µM (≈ 0.168 µg/mL); MIC-fold improvement vs. vancomycin ([18]; MRSA KS8, ratio of MIC of vancomycin and MIC of analogue): 4; MIC ([18]; Staphylococcus aureus MRSA KS8, read-out: MIC): 0.20 µM (≈ 0.337 µg/mL)
